Assay results as given in US7825126B2 (The United States of America as represented by the …, priority 2004, dated 2010).
Read-outs that look alike come from different tables or passages of the source.

How the values were obtained:
[1] = molecular target: T1, human A2A receptors (Homo sapiens, UniProt P29274); assay: Binding at human A2A adenosine receptor ([3H]CGS21680, HEK-293 cell membranes); conditions: [3H]CGS 21680; for Ki: mean ± s.e.m., n = 3-5, read-out: Ki(hA2AAR)
T1 construct: expressed in transfected cells
T1 sequence (P29274 whole entry): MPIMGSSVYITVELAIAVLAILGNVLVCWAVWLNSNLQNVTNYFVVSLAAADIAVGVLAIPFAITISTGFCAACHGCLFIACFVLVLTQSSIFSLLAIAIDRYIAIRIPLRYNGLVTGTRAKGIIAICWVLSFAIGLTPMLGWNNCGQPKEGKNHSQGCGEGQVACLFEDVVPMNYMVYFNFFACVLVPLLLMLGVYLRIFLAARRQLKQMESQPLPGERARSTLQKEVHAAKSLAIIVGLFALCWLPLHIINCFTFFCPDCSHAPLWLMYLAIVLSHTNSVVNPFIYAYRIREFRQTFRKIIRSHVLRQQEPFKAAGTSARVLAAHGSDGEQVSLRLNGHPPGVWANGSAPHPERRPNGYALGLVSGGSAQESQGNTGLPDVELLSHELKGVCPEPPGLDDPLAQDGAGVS

[2] = molecular target: T2, human A2B adenosine receptor (hA2BAR) (Homo sapiens, UniProt P29275); assay: Activation of human A2B adenosine receptor at 10 μM; type: cell-based; conditions: CHO cells
T2 sequence (P29275 1-332): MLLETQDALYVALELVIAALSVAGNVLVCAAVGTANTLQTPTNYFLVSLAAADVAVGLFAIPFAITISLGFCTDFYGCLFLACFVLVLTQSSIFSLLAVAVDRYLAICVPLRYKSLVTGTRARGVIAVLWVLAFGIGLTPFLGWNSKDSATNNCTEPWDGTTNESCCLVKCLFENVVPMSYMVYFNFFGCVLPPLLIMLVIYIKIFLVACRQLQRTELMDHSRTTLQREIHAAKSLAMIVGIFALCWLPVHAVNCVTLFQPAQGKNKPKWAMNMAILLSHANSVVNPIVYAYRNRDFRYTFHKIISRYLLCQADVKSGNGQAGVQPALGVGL

[3] = molecular target: T3, human A1 receptors (Homo sapiens, UniProt P30542); assay: Binding at human A1 adenosine receptor ([3H]R-PIA, CHO cell membranes); conditions: for Ki: mean ± s.e.m., n = 3-5, read-out: Ki(hA1AR)
T3 construct: expressed in transfected cells
T3 sequence (P30542 1-326): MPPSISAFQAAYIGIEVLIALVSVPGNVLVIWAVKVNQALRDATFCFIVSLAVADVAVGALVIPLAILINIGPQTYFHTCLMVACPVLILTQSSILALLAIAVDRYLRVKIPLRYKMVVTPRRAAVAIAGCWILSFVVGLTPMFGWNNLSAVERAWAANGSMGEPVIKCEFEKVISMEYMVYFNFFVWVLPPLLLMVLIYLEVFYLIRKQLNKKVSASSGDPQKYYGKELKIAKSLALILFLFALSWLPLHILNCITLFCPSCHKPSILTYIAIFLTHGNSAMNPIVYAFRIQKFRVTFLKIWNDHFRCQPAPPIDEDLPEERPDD

[4] = molecular target: T4, human A3 adenosine receptor (Homo sapiens, UniProt P0DMS8); assay: Cyclic AMP accumulation assay (inhibition of forskolin-stimulated cAMP), CHO cells expressing human A3 adenosine receptor; conditions: 10 μM, relative to 10 μM Cl-IB-MECA
T4 sequence (P0DMS8 1-318): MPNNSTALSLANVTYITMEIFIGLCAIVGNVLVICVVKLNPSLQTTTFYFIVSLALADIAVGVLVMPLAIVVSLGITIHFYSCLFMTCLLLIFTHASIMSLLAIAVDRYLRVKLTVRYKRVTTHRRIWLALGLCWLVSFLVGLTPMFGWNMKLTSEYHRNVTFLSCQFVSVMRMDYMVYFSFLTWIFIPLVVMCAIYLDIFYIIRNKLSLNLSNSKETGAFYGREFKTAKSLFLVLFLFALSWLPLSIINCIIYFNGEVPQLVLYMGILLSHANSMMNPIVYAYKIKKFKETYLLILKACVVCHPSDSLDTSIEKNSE

[5] = molecular target: T4, human A3 adenosine receptor; design: expressed in transfected cells; host or cells: CHO cells; conditions: relative to 10 μM Cl-IB-MECA, data from literature (footnotes c, d, e, f); cited from earlier work
[6] = molecular target: T4, human A3 adenosine receptor; assay: Binding at human A3 adenosine receptor ([125I]I-AB-MECA, CHO cell membranes); design: expressed in transfected cells; host or cells: CHO cells; conditions: [125I]I-AB-MECA; mean ± s.e.m., n = 3-5; read-out: Ki(hA3AR)

Ki [1] [nM] | % Activation (hA2BAR) at 10 μM [2] [%] | % displ. at 10 μM (hA2AAR) [1] [%] | SMILES | further results
4800 ± 200 | 48 | – | CNC(=O)[C@@]12C[C@@H]1[C@@H](n1cnc3c(N[C@@H]4C[C@H]4c4ccccc4)nc(Cl)nc31)[C@H](O)[C@@H]2O (relative stereo) [Compound 33, (1′S,2′R,3′S,4′R,5′S)-(4′-{2-chloro-6-[(trans-2-phenylcyclopropyl)amino]purin-9-yl}-2′,3′-dihydroxybicyclo[3.1.0]hexyl)-N-methylcarboxamide] | –
1600 ± 400 | – | – | CNC(=O)[C@@]12C[C@@H]1[C@@H](n1cnc3c(NCc4cccc(I)c4)nc(Cl)nc31)[C@H](O)[C@@H]2O [Compound 4, reference compound] | Ki [3]: 65 ± 17 nM; % Activation (hA3AR) at 10 μM [4]: 3 ± 2%
5100 ± 200 | 28 | – | CNC(=O)C12CC1C(n1cnc3c(NCc4cccc(F)c4)nc(Cl)nc31)C(O)C2O (stereo not drawn) [Compound 19, (1′S,2′R,3′S,4′S,5′S)-4′-[6-(3-Fluorobenzylamino)-2-chloro-purin-9-yl]-2′,3′-dihydroxy-bicyclo[3.1.0]hexane-1′-carboxylic acid methylamide] | –
480 ± 20 | 58 | – | CNC(=O)C12CC1C(n1cnc3c(NCc4cc(I)ccc4Cl)nc(Cl)nc31)C(O)C2O (stereo not drawn) [Compound 21, (1′S,2′R,3′S,4′S,5′S)-4′-[6-(2-Chloro-5-iodo-benzylamino)-2-chloro-purin-9-yl]-2′,3′-dihydroxy-bicyclo[3.1.0]hexane-1′-carboxylic acid methylamide] | –
1200 ± 100 | 37 | – | CNC(=O)C12CC1C(n1cnc3c(NCc4cc(Cl)ccc4OC)nc(Cl)nc31)C(O)C2O (stereo not drawn) [Compound 22, (1′S,2′R,3′S,4′S,5′S)-4′-[6-(5-Chloro-2-methoxy-benzylamino)-2-chloro-purin-9-yl]-2′,3′-dihydroxy-bicyclo[3.1.0]hexane-1′-carboxylic acid methylamide] | –
800 ± 70 | – | – | CNC(=O)C12CC1C(n1cnc3c(NCc4cc(Cl)ccc4OCC(N)=O)nc(Cl)nc31)C(O)C2O (stereo not drawn) [Compound 23, (1′S,2′R,3′S,4′S,5′S)-4′-[6-(5-Chloro-2-(aminocarbonylmethyloxy)-benzylamino)-2-chloro-purin-9-yl]-2′,3′-dihydroxy-bicyclo[3.1.0]hexane-1′-carboxylic acid methylamide] | –
430 ± 30 | 46 | – | CNC(=O)C12CC1C(n1cnc3c(NCc4cc(I)ccc4OC)nc(Cl)nc31)C(O)C2O (stereo not drawn) [Compound 25, (1′S,2′R,3′S,4′S,5′S)-4′-[6-(5-Iodo-2-methoxy-benzylamino)-2-chloro-purin-9-yl]-2′,3′-dihydroxy-bicyclo[3.1.0]hexane-1′-carboxylic acid methylamide] | –
3800 ± 200 | 24 | – | CNC(=O)C12CC1C(n1cnc3c(NCc4ccccc4C)nc(Cl)nc31)C(O)C2O (stereo not drawn) [Compound 27, (1′S,2′R,3′S,4′S,5′S)-4′-[6-(2-Methyl-benzylamino)-2-chloro-purin-9-yl]-2′,3′-dihydroxy-bicyclo[3.1.0]hexane-1′-carboxylic acid methylamide] | –
3700 ± 600 | 46 | – | CNC(=O)C12CC1C(n1cnc3c(NCc4cccc(C)c4)nc(Cl)nc31)C(O)C2O (stereo not drawn) [Compound 28, (1′S,2′R,3′S,4′S,5′S)-4′-[6-(3-Methyl-benzylamino)-2-chloro-purin-9-yl]-2′,3′-dihydroxy-bicyclo[3.1.0]hexane-1′-carboxylic acid methylamide] | –
– | 28 | 56 | CNC(=O)C12CC1C(n1cnc3c(NCc4cccc(C#CCO)c4)nc(Cl)nc31)C(O)C2O (stereo not drawn) [Compound 29, (1′S,2′R,3′S,4′S,5′S)-4′-[6-(3-(3-Hydroxypropynyl)-benzylamino)-2-chloro-purin-9-yl]-2′,3′-dihydroxy-bicyclo[3.1.0]hexane-1′-carboxylic acid methylamide] | –
– | 6 | 12 | CNC(=O)C12CC1C(n1cnc3c(NCc4cc(C#CCO)ccc4Cl)nc(Cl)nc31)C(O)C2O (stereo not drawn) [Compound 30, (1′S,2′R,3′S,4′S,5′S)-4′-[6-(2-Chloro-5-(3-hydroxypropynyl)-benzylamino)-2-chloro-purin-9-yl]-2′,3′-dihydroxy-bicyclo[3.1.0]hexane-1′-carboxylic acid methylamide] | % displ. at 10 μM (hA1AR) ([3]; 10 μM): 14%; Ki [6]: 217 ± 27 nM; % Activation (hA3AR) at 10 μM [4]: 108 ± 5%
– | 22 | 28 | CNC(=O)C12CC1C(n1cnc3c(NCc4ccc(N)cc4)nc(Cl)nc31)C(O)C2O (stereo not drawn) [Compound 31a, (1′S,2′R,3′S,4′S,5′S)-4′-[6-(4-Amino-benzylamino)-2-chloro-purin-9-yl]-2′,3′-dihydroxy-bicyclo[3.1.0]hexane-1′-carboxylic acid methylamide] | –
1100 ± 100 | – | – | CNC(=O)[C@@]12C[C@@H]1[C@@H](n1cnc3c(NCc4ccc(N)c(I)c4)nc(Cl)nc31)[C@H](O)[C@@H]2O [Compound 31b] | –
– | 4 | 33 | CNC(=O)C12CC1C(n1cnc3c(NCc4cccnc4)nc(Cl)nc31)C(O)C2O (stereo not drawn) [Compound 32, (1′S,2′R,3′S,4′S,5′S)-4′-[6-(3-Pyridylmethylamino)-2-chloro-purin-9-yl]-2′,3′-dihydroxy-bicyclo[3.1.0]hexane-1′-carboxylic acid methylamide] | –
– | – | 52 | CNC(=O)C12CC1C(n1cnc3c(NCc4cccc(Cl)c4)nc(SC)nc31)C(O)C2O (stereo not drawn) [Compound 36] | % Activation (hA3AR) at 10 μM [4]: 100 ± 4%

SMILES | Ki [1] [nM] | % Activation (hA2BAR) at 10 μM [2] [%] | % displ. at 10 μM (hA2AAR) [1] [%] | further results
OC[C@H]1O[C@@H](n2cnc3c(NCc4cccc(Cl)c4)ncnc32)[C@H](O)[C@@H]1O [Compound 8, reference compound] | 1400 ± 200 | – | – | Ki [3]: 20 ± 3 nM; % Activation (hA3AR) at 10 μM [5]: 80 ± 3^d %
CNC(=O)[C@@]12C[C@@H]1[C@H](n1cnc3c(NC)nc(N)nc31)[C@H](O)[C@@H]2O [Compound 15, (1′S,2′R,3′S,4′S,5′S)-4′-[6-Methylamino-2-amino-purin-9-yl]-2′,3′-dihydroxy-bicyclo[3.1.0]hexane-1′-carboxylic acid methylamide] | – | – | 17 | –
CNC(=O)[C@@]12C[C@@H]1[C@@H](n1cnc3c(NCc4cccc(I)c4)ncnc31)[C@H](O)[C@@H]2O [Compound 16] | 6200 ± 100 | – | – | Ki [3]: 700 ± 270 nM; % Activation (hA3AR) at 10 μM [5]: 100^e %
CNC(=O)[C@@]12C[C@@H]1[C@H](n1cnc3c(NCc4cc(Cl)ccc4Cl)nc(Cl)nc31)[C@H](O)[C@@H]2O [Compound 20, (1′S,2′R,3′S,4′S,5′S)-4′-[6-(2,5-Dichlorobenzylamino)-2-chloro-purin-9-yl]-2′,3′-dihydroxy-bicyclo[3.1.0]hexane-1′-carboxylic acid methyl amide] | 1300 ± 100 | 32 | – | –
CCOC(=O)[C@@]12C[C@@H]1[C@H](n1cnc3c(NCc4cccc(Cl)c4)nc(I)nc31)[C@H](O)[C@@H]2O [Compound 35, (1′S,2′R,3′S,4′S,5′S)-4′-[6-(3-Chlorobenzylamino)-2-iodo-purin-9-yl]-2′,3′-dihydroxy-bicyclo[3.1.0]hexane-1′-carboxylic acid ethyl ester] | – | – | 43 | –
